Where two headings read alike, the source gives them in different places.
Target: T1, PAD4 enzyme (Homo sapiens, UniProt Q9UM07)
T1 construct: PAD4 enzyme was diluted to 30 nM in Assay Buffer
Test: In-vitro measurement for enzymatic PAD4 citrullination inhibition activity (ammonia release)
Format: biochemical
Method: Citrullination was detected via ammonia release based on published methodology (Nature Chemical Biology, 2015, 11: 189-191).
PAD4 enzyme was diluted to 30 nM in Assay Buffer (100 mM HEPES, 50 mM NaCl, 2 mM DTT, 0.6 mg/ml BSA, pH 8) and added to wells containing various concentrations of compound or DMSO vehicle (0.8% final) in a high-volume black 96-well plate (Greiner). Following a 60-min preincubation at 27° C., the reaction was initiated by the addition of substrate (3 mM BAEE in 100 mM HEPES, 50 mM NaCl, […] CaCl2, 2 mM DTT, pH 8). The reaction was stopped after 90 min by the addition of stop/detection buffer containing 50 mM EDTA, 2.6 mM o-phthalaldehyde and 2.6 mM DTT. Assays were incubated at 27° C. for 120 min before measuring fluorescence (λex 410/λem 476) on an Envision plate reader (PerkinElmer). After which IC50 values were calculated using GraphPad Prism 8.0.

[1] = read-out: IC50 of inhibition enzymatic activity of PAD4 (Colorimetric assays, Nature Chemical Biology, 2015, 11: 189-191)
[2] = direct comparison of prior art and selenium containing compounds, read-out: IC50 for enzymatic PAD4 citrullination inhibition

T1 sequence (Q9UM07 whole entry): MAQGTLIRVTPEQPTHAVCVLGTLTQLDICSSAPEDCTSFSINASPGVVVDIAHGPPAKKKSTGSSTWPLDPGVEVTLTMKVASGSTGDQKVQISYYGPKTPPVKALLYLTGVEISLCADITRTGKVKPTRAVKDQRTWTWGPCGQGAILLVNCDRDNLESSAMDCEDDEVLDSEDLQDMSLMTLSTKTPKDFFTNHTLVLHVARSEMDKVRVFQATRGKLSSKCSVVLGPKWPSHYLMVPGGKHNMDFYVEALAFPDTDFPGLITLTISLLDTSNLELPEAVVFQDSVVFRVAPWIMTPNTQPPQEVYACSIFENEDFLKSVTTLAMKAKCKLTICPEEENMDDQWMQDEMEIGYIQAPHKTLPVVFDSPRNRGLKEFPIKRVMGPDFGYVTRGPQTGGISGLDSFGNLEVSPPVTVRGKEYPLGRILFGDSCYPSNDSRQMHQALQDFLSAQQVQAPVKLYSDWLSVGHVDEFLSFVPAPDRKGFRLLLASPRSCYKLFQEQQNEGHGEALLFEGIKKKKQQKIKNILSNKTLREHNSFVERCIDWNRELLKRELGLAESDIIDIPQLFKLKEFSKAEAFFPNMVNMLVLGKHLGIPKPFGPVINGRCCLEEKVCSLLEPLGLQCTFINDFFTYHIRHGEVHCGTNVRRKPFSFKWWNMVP

## CCn1c(-c2nc3cc(C(=O)N4C[C@H](N)CC[C@@H]4C)cc(OC)c3n2C)cc2[se]c(C)nc21 [HH-19]
[1]
  IC50: 100 to 500 nM

## Cc1c(-c2cc3[se]c(-c4ccccn4)nc3n2CC2CC2)nn2cc(C(=O)N3C[C@H]4CC[C@@H]3[C@@H]4N)ccc12 [HH-72]
[1]
  IC50: 100 to 500 nM

## COc1cc(C(=O)N2C[C@H](N)C[C@@H](F)C2)cc2nc(-c3cc4cc[se]c4n3CC3CC3)n(C)c12 [HH-64]
[1]
  IC50: 50 to 100 nM

## COc1cc(C(=O)N2C[C@H](N)C[C@@H](F)C2)cc2nc(-c3cc4[se]c(-c5cccc(C)c5)nc4n3CC3CC3)n(C)c12 [HH-46]
[1]
  IC50: > 500 nM

## COc1cc(C(=O)N2C[C@H](N)CC[C@@H]2C)cc2nc(-c3cc4[se]c(C)nc4n3Cc3ccc(C(F)(F)F)cc3)n(C)c12 [HH-28]
[1]
  IC50: > 500 nM

## COc1cc(C(=O)N2C[C@H](N)CC[C@@H]2C)cc2nc(-c3cc4[se]c(C)nc4n3Cc3ccccn3)n(C)c12 [HH-31]
[1]
  IC50: 100 to 500 nM

## COc1cc(C(=O)N2C[C@H](N)CC[C@@H]2C)cc2nc(-c3cc4[se]c(C5CC5)nc4n3CC3CC3)n(C)c12 [HH-6]
[1]
  IC50: ≤ 50 nM

## COc1cc(C(=O)N2C[C@H](N)CC[C@@H]2C)cc2nc(-c3cc4[se]c(C)nc4n3CC3CCC3)n(C)c12 [HH-15]
[1]
  IC50: ≤ 50 nM

## COc1cc(C(=O)N2CC[C@@H](O)[C@@H](N)C2)cc2nc(-c3cc4[se]c(C)nc4n3CC3CC3)n(C)c12 [HH-11]
[1]
  IC50: 100 to 500 nM

## COc1cc(C(=O)N2C[C@H]3CC[C@@H]2[C@@H]3N)cc2nc(-c3cc4[se]c(C)nc4n3CC3CC3)n(C)c12 [HH-9]
[1]
  IC50: ≤ 50 nM

## COc1cc(C(=O)N2C[C@H]3CC[C@@H]2[C@@H]3N)cc2nc(-c3cc4[se]c(-c5ccccn5)nc4n3CC3CC3)n(C)c12 [HH-44]
[1]
  IC50: 100 to 500 nM

## COc1cc(C(=O)N2C[C@H](N)C[C@@H](F)C2)cc2nc(-c3cc4[se]c(C)cc4n3CC3CC3)n(C)c12 [HH-51]
[1]
  IC50: ≤ 50 nM

## COc1cc(C(=O)N2CCC[C@@H](N)C2)cc2nc(-c3cc4[se]c(C)nc4n3CC3CCC3)n(C)c12 [HH-17]
[1]
  IC50: ≤ 50 nM

## Cc1nc2c(cc(-c3nc4cc(C(=O)N5C[C@H](N)CC[C@@H]5C)ccn4c3C)n2CC2CC2)[se]1 [HH-75]
[1]
  IC50: ≤ 50 nM

## COc1cc(C(=O)N2C[C@H](N)CC[C@@H]2C)cn2nc(-c3cc4[se]c(C)nc4n3CC3CC3)c(C)c12 [HH-67]
[1]
  IC50: 100 to 500 nM

## COc1cc(C(=O)N2C[C@H](N)C[C@@H](F)C2)cc2nc(-c3cc4[se]c(C5CCNCC5)nc4n3CC3CC3)n(C)c12 [HH-36]
[1]
  IC50: 100 to 500 nM

## COc1cc(C(=O)N2CC[C@@H](F)[C@@H](N)C2)cc2nc(-c3cc4[se]c(C)nc4n3CC3CC3)n(C)c12 [HH-14]
[1]
  IC50: 100 to 500 nM

## COc1cc(C(=O)N2C[C@H]3CC[C@@H]2[C@@H]3N)cc2nc(-c3cc4[se]c(C)cc4n3CC3CC3)n(C)c12 [HH-52]
[2]
  IC50: 25.1 nM
[1]
  IC50: ≤ 50 nM

## COc1ccccc1Cn1c(-c2nc3cc(C(=O)N4C[C@H](N)CC[C@@H]4C)cc(OC)c3n2C)cc2[se]c(C)nc21 [HH-26]
[1]
  IC50: 100 to 500 nM

## Cc1c(-c2cc3[se]c(-c4ccccn4)nc3n2CC2CC2)nn2cc(C(=O)N3C[C@H](N)C[C@@H](F)C3)ccc12 [HH-71]
[1]
  IC50: 100 to 500 nM

## COc1cc(C(=O)N2CCC[C@@H](N)C2)cc2nc(-c3cc4sc(C5CC5)nc4n3CC3CC3)n(C)c12 [Cpd-118, reference compound]
[2]
  IC50: 66.8 nM

## COc1ccccc1-c1cc2c(cc(-c3nc4cc(C(=O)N5C[C@H](N)C[C@@H](F)C5)cc(OC)c4n3C)n2CC2CC2)[se]1 [HH-60]
[1]
  IC50: 100 to 500 nM

## COc1cc(C(=O)N2C[C@H]3CC[C@@H]2[C@@H]3N)cc2nc(-c3cc4[se]c(-c5cccc(C)c5)cc4n3CC3CC3)n(C)c12 [HH-57]
[1]
  IC50: 100 to 500 nM

## COc1cc(C(=O)N2C[C@H](N)C[C@@H](F)C2)cc2nc(-c3cc4[se]ccc4n3CC3CC3)n(C)c12 [HH-47]
[1]
  IC50: 50 to 100 nM

## COc1cc(C(=O)N2C[C@H](N)C[C@@H](F)C2)cc2nc(-c3cc4[se]c(-c5ccccn5)cc4n3CC3CC3)n(C)c12 [HH-63]
[1]
  IC50: 100 to 500 nM

## COc1cc(C(=O)N2C[C@H](N)CC[C@@H]2C)cc2nc(-c3cc4[se]c(-c5ccc(C)cc5)nc4n3CC3CC3)n(C)c12 [HH-45]
[1]
  IC50: > 500 nM

## COc1cc(C(=O)N2C[C@H](N)CC[C@@H]2C)cc2nc(-c3cc4[se]c(C)nc4n3CC(F)(F)F)n(C)c12 [HH-23]
[1]
  IC50: 100 to 500 nM

## COc1cc(C(=O)N2C[C@H](N)CC[C@@H]2C)cc2nc(-c3cc4[se]c(C5CCNCC5)nc4n3CC3CC3)n(C)c12 [HH-35]
[1]
  IC50: 50 to 100 nM

## Cc1nc2c(cc(-c3nc4cc(C(=O)N5C[C@H]6CC[C@@H]5[C@@H]6N)ccn4c3C)n2CC2CC2)[se]1 [HH-74]
[1]
  IC50: 50 to 100 nM

## COc1cc(C(=O)N2C[C@H](N)CC[C@@H]2C)cc2nc(-c3cc4[se]c(C)nc4n3Cc3ccoc3)n(C)c12 [HH-32]
[1]
  IC50: 100 to 500 nM

## COc1cc(C(=O)N2C[C@H](N)C[C@@H](F)C2)cn2nc(-c3cc4[se]c(C)nc4n3CC3CC3)c(C)c12 [HH-69]
[1]
  IC50: 50 to 100 nM

## COc1cc(C(=O)N2C[C@H](N)C[C@@H](F)C2)cc2nc(-c3cc4[se]c(C)nc4n3CC3CC3)n(C)c12 [HH-10]
[1]
  IC50: ≤ 50 nM

## COc1cc(C(=O)N2C[C@H]3CC[C@@H]2[C@@H]3N)cc2nc(-c3cc4sc(C)cc4n3CC3CC3)n(C)c12 [Cpd-27, reference compound]
[2]
  IC50: 272 nM

## COc1cc(C(=O)N2C[C@H](N)CC[C@@H]2C)cc2nc(-c3cc4cc[se]c4n3CC3CC3)n(C)c12 [HH-65]
[1]
  IC50: 50 to 100 nM

## COc1cc(C(=O)N2CCC[C@@H](N)C2)cc2nc(-c3cc4[se]c(C)cc4n3CC3CC3)n(C)c12 [HH-50]
[1]
  IC50: 50 to 100 nM

## COc1cc(C(=O)N2C[C@H](N)CC[C@@H]2C)cc2nc(-c3cc4[se]c(-c5ccccn5)nc4n3CC3CC3)n(C)c12 [HH-43]
[1]
  IC50: 100 to 500 nM

## COc1cc(C(=O)N2C[C@H](N)CC(F)(F)C2)cc2nc(-c3cc4[se]c(C)nc4n3CC3CC3)n(C)c12 [HH-13]
[1]
  IC50: > 500 nM

## COc1cc(C(=O)N2C[C@H]3CC[C@@H]2[C@@H]3N)cn2nc(-c3cc4[se]c(C)nc4n3CC3CC3)c(C)c12 [HH-68]
[1]
  IC50: 50 to 100 nM

## COc1cc(C(=O)N2C[C@H]3CC[C@@H]2[C@@H]3N)cc2nc(-c3cc4[se]c(C5CC5)nc4n3CC3CC3)n(C)c12 [HH-7]
[1]
  IC50: ≤ 50 nM

## COc1cc(C(=O)N2C[C@H]3CC[C@@H]2[C@@H]3N)cc2nc(-c3cc4[se]c(C)nc4n3Cc3ccncc3)n(C)c12 [HH-30]
[1]
  IC50: 100 to 500 nM

## COc1ccccc1-c1cc2c(cc(-c3nc4cc(C(=O)N5C[C@H](N)CC[C@@H]5C)cc(OC)c4n3C)n2CC2CC2)[se]1 [HH-59]
[1]
  IC50: ≤ 50 nM

## CCc1nc2c(cc(-c3nc4cc(C(=O)N5C[C@H](N)CC[C@@H]5C)cc(OC)c4n3C)n2CC2CC2)[se]1 [HH-2]
[1]
  IC50: ≤ 50 nM

## COc1cc(C(=O)N2C[C@H](N)CC[C@@H]2C)cc2nc(-c3cc4[se]c(C)nc4n3CC3CC3)n(C)c12 [HH-8]
[1]
  IC50: ≤ 50 nM

## COc1cc(C(=O)N2CCC[C@@H](N)C2)cc2nc(-c3cc4[se]c(C)nc4n3CC3CC3)n(C)c12 [HH-12]
[1]
  IC50: ≤ 50 nM

## COc1cc(C(=O)N2C[C@H]3CC[C@@H]2[C@@H]3N)cc2nc(-c3cc4[se]c(C5CCCN5)cc4n3CC3CC3)n(C)c12 (some centres unmarked) [HH-55]
[1]
  IC50: 100 to 500 nM

## COc1cc(C(=O)N2C[C@H](N)C[C@@H](F)C2)cc2nc(-c3cc4[se]c(C5CC5)nc4n3CC3CC3)n(C)c12 [HH-5]
[1]
  IC50: ≤ 50 nM

## CCc1nc2c(cc(-c3nc4cc(C(=O)N5C[C@H]6CC[C@@H]5[C@@H]6N)cc(OC)c4n3C)n2CC2CC2)[se]1 [HH-1]
[1]
  IC50: ≤ 50 nM

## COc1cc(C(=O)N2CCC[C@@H](N)C2)cc2nc(-c3cc4[se]c(C5CC5)nc4n3CC3CC3)n(C)c12 [HH-4]
[2]
  IC50: 22.4 nM
[1]
  IC50: ≤ 50 nM
